Test results as given in ChEMBL document CHEMBL1201862, “PubChem BioAssay data set” (2004).
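48-hour exposure; five concentrations; linearly interpolated endpoints. GI50: concentration for 50% inhibition of growth.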 Active and inactive are the calls of the source. Cut-off read from the data, not from the text of the source: active = GI50 up to about 1.1 µM and inactive = higher.

Assays:
Assay in all cases: DTP human tumour cell line panel, 48 h
[1] = tested on: LOX IMVI
[2] = tested on: OVCAR-4
[3] = tested on: RXF 393
[4] = tested on: MDA-MB-231
[5] = tested on: IGROV-1
[6] = tested on: DU-145
[7] = tested on: SF-295
[8] = tested on: RPMI-8226
[9] = tested on: HCT-15
[10] = tested on: SF-268
[11] = tested on: EKVX
[12] = tested on: A498
[13] = tested on: OVCAR-8
[14] = tested on: A549
[15] = tested on: SK-MEL-5
[16] = tested on: UACC-62
[17] = tested on: COLO 205
[18] = tested on: HOP-62
[19] = tested on: UO-31
[20] = tested on: U-251
[21] = tested on: ACHN
[22] = tested on: MCF7
[23] = tested on: SNB-19
[24] = tested on: Malme-3M
[25] = tested on: HCT-116
[26] = tested on: M14
[27] = tested on: SW-620
[28] = tested on: Hs-578T
[29] = tested on: UACC-257
[30] = tested on: SN12C
[31] = tested on: HT-29
[32] = tested on: MDA-N
[33] = tested on: NCI-H226
[34] = tested on: MDA-MB-435
[35] = tested on: CAKI-1
[36] = tested on: PC-3
[37] = tested on: MOLT-4
[38] = tested on: NCI-H23
[39] = tested on: NCI/ADR-RES
[40] = tested on: NCI-H460
[41] = tested on: HCC 2998
[42] = tested on: OVCAR-5
[43] = tested on: SK-MEL-28
[44] = tested on: K562
[45] = tested on: SF-539
[46] = tested on: BT-549
[47] = tested on: SNB-75
[48] = tested on: SR
[49] = tested on: OVCAR-3
[50] = tested on: SK-MEL-2
[51] = tested on: CCRF-CEM
[52] = tested on: TK-10
[53] = tested on: 786-0
[54] = tested on: KM12
[55] = tested on: NCI-H522
[56] = tested on: SK-OV-3
[57] = tested on: HL-60
[58] = tested on: T47D

## Nc1nc(SC/C=C/c2ccccc2)c2[nH]cnc2n1
[1]
  GI50: 53.1 µM (inactive)
[2]
  GI50: > 100 µM (inactive)
[3]
  GI50: 51.5 µM (inactive)
[4]
  GI50: > 100 µM (inactive)
[5]
  GI50: 22.2 µM (inactive)
[6]
  GI50: 94.2 µM (inactive)
[7]
  GI50: > 100 µM (inactive)
[8]
  GI50: 91.4 µM (inactive)
[9]
  GI50: 32.8 µM
[10]
  GI50: 74.8 µM (inactive)
[11]
  GI50: > 100 µM (inactive)
[12]
  GI50: > 100 µM (inactive)
[13]
  GI50: 74.5 µM (inactive)
[14]
  GI50: > 100 µM (inactive)
[15]
  GI50: > 100 µM (inactive)
[16]
  GI50: > 100 µM (inactive)
[17]
  GI50: > 100 µM (inactive)
[18]
  GI50: 83.2 µM (inactive)
[19]
  GI50: 46.8 µM (inactive)
[20]
  GI50: > 100 µM (inactive)
[21]
  GI50: 97.9 µM (inactive)
[22]
  GI50: > 100 µM (inactive)
[23]
  GI50: > 100 µM (inactive)
[24]
  GI50: > 100 µM (inactive)
[25]
  GI50: > 100 µM (inactive)
[26]
  GI50: 71.8 µM (inactive)
[27]
  GI50: > 100 µM (inactive)
[28]
  GI50: 16.7 µM (inactive)
[29]
  GI50: > 100 µM (inactive)
[30]
  GI50: > 100 µM (inactive)
[31]
  GI50: > 100 µM (inactive)
[32]
  GI50: > 100 µM (inactive)
[33]
  GI50: 35.2 µM (inactive)
[34]
  GI50: > 100 µM (inactive)
[35]
  GI50: 38.7 µM (inactive)
[36]
  GI50: > 100 µM (inactive)
[37]
  GI50: > 100 µM (inactive)
[38]
  GI50: > 100 µM (inactive)
[39]
  GI50: 48.9 µM (inactive)
[40]
  GI50: 72.1 µM (inactive)
[41]
  GI50: > 100 µM (inactive)
[42]
  GI50: > 100 µM (inactive)
[43]
  GI50: > 100 µM (inactive)
[44]
  GI50: 63.2 µM (inactive)
[45]
  GI50: > 100 µM (inactive)
[46]
  GI50: 28.2 µM (inactive)
[47]
  GI50: 28.6 µM (inactive)
[48]
  GI50: 45.7 µM (inactive)
[49]
  GI50: 30.4 µM (inactive)
[50]
  GI50: 91 µM (inactive)
[51]
  GI50: 54.2 µM (inactive)
[52]
  GI50: 22.4 µM (inactive)
[53]
  GI50: > 100 µM (inactive)
[54]
  GI50: > 100 µM (inactive)
[55]
  GI50: 19.5 µM (inactive)
[56]
  GI50: > 100 µM (inactive)
[57]
  GI50: 54.7 µM (inactive)
[58]
  GI50: > 100 µM (inactive)
